Assay results from ChEMBL document CHEMBL1201862, “PubChem BioAssay data set” (2004).
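Protocol summary: plate cells (96-well), add compound at 5 concentrations, incubate 48 h, interpolate endpoints linearly. GI50 is the concentration that inhibits growth by half.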 The source made the active and inactive calls. No stated cut-off is given here; in the data, active = GI50 up to about 1.1 µM and inactive = higher.

Key:
Experiment in all cases: NCI anticancer screen, dose series, 48 h
[1] = test system: A498
[2] = test system: BT-549
[3] = test system: CAKI-1
[4] = test system: CCRF-CEM
[5] = test system: COLO 205
[6] = test system: DU-145
[7] = test system: HCT-116
[8] = test system: HCT-15
[9] = test system: HL-60
[10] = test system: HOP-62
[11] = test system: HT-29
[12] = test system: Hs-578T
[13] = test system: IGROV-1
[14] = test system: K562
[15] = test system: KM12
[16] = test system: LOX IMVI
[17] = test system: M14
[18] = test system: MCF7
[19] = test system: MDA-MB-231
[20] = test system: MDA-MB-435
[21] = test system: MDA-N
[22] = test system: MOLT-4
[23] = test system: Malme-3M
[24] = test system: NCI-H226
[25] = test system: NCI-H23
[26] = test system: NCI-H460
[27] = test system: NCI/ADR-RES
[28] = test system: OVCAR-3
[29] = test system: OVCAR-4
[30] = test system: OVCAR-5
[31] = test system: OVCAR-8
[32] = test system: PC-3
[33] = test system: RPMI-8226
[34] = test system: RXF 393
[35] = test system: SF-295
[36] = test system: SK-MEL-28
[37] = test system: SK-MEL-2
[38] = test system: SK-MEL-5
[39] = test system: SK-OV-3
[40] = test system: SN12C
[41] = test system: SNB-19
[42] = test system: SNB-75
[43] = test system: SR
[44] = test system: SW-620
[45] = test system: T47D
[46] = test system: TK-10
[47] = test system: U-251
[48] = test system: UACC-257
[49] = test system: UACC-62
[50] = test system: UO-31
[51] = test system: 786-0
[52] = test system: A549
[53] = test system: ACHN
[54] = test system: EKVX
[55] = test system: HCC 2998
[56] = test system: HOP-92
[57] = test system: NCI-H522
[58] = test system: SF-268
[59] = test system: SF-539

CC(C)(C)[Si](C)(C)OCC1OC(n2cnc3c(N)ncnc32)CC1O (stereo not given)
GI50 [1]: 81.8 µM (inactive)
GI50 [2]: 32.7 µM (inactive)
GI50 [3]: 86.9 µM (inactive)
GI50 [4]: 22.6 µM (inactive)
GI50 [5]: 91.6 µM (inactive)
GI50 [6]: 95.5 µM (inactive)
GI50 [7]: > 100 µM (inactive)
GI50 [8]: 81.8 µM
GI50 [9]: 20 µM (inactive)
GI50 [10]: 92.7 µM (inactive)
GI50 [11]: > 100 µM (inactive)
GI50 [12]: 55.5 µM (inactive)
GI50 [13]: 76.6 µM (inactive)
GI50 [14]: 21.8 µM (inactive)
GI50 [15]: 39.6 µM (inactive)
GI50 [16]: > 100 µM (inactive)
GI50 [17]: 44.2 µM (inactive)
GI50 [18]: > 100 µM (inactive)
GI50 [19]: 52.5 µM (inactive)
GI50 [20]: > 100 µM (inactive)
GI50 [21]: > 100 µM (inactive)
GI50 [22]: 16.1 µM (inactive)
GI50 [23]: > 100 µM (inactive)
GI50 [24]: 53.1 µM (inactive)
GI50 [25]: 79.4 µM (inactive)
GI50 [26]: 97.5 µM (inactive)
GI50 [27]: 40.4 µM (inactive)
GI50 [28]: 51.2 µM (inactive)
GI50 [29]: 71.4 µM (inactive)
GI50 [30]: 60.8 µM (inactive)
GI50 [31]: 87.9 µM (inactive)
GI50 [32]: 53.1 µM (inactive)
GI50 [33]: 52.8 µM (inactive)
GI50 [34]: 20.6 µM (inactive)
GI50 [35]: > 100 µM (inactive)
GI50 [36]: > 100 µM (inactive)
GI50 [37]: 56.1 µM (inactive)
GI50 [38]: 35.6 µM (inactive)
GI50 [39]: 81.5 µM (inactive)
GI50 [40]: > 100 µM (inactive)
GI50 [41]: > 100 µM (inactive)
GI50 [42]: > 100 µM (inactive)
GI50 [43]: 34.8 µM (inactive)
GI50 [44]: > 100 µM (inactive)
GI50 [45]: 41.6 µM (inactive)
GI50 [46]: > 100 µM (inactive)
GI50 [47]: > 100 µM (inactive)
GI50 [48]: > 100 µM (inactive)
GI50 [49]: 36.9 µM (inactive)
GI50 [50]: 13 µM (inactive)

CCn1c2c(c3c(C(=O)OC)c(O)ccc31)C(=O)c1ccccc1C2=O
GI50 [51]: 12.2 µM (inactive)
GI50 [52]: 13.9 µM (inactive)
GI50 [53]: 4.69 µM (inactive)
GI50 [2]: 12.5 µM (inactive)
GI50 [3]: 15.5 µM (inactive)
GI50 [4]: 15 µM (inactive)
GI50 [5]: 17.1 µM (inactive)
GI50 [6]: 11.1 µM (inactive)
GI50 [54]: 26 µM (inactive)
GI50 [55]: 19.4 µM (inactive)
GI50 [7]: 13.1 µM (inactive)
GI50 [8]: 7.85 µM
GI50 [9]: 22.1 µM (inactive)
GI50 [10]: 15.7 µM (inactive)
GI50 [56]: 5.52 µM (inactive)
GI50 [11]: 19.3 µM (inactive)
GI50 [12]: 10.1 µM (inactive)
GI50 [13]: 3.61 µM (inactive)
GI50 [14]: 20.4 µM (inactive)
GI50 [15]: 16.6 µM (inactive)
GI50 [16]: 13.2 µM (inactive)
GI50 [17]: 14.2 µM (inactive)
GI50 [18]: 16.4 µM (inactive)
GI50 [19]: 15.4 µM (inactive)
GI50 [20]: 12.9 µM (inactive)
GI50 [21]: 11.9 µM (inactive)
GI50 [22]: 12.1 µM (inactive)
GI50 [23]: 15.8 µM (inactive)
GI50 [24]: 9.18 µM (inactive)
GI50 [25]: 18.3 µM (inactive)
GI50 [26]: 7.19 µM (inactive)
GI50 [57]: 5.9 µM (inactive)
GI50 [27]: 16.6 µM (inactive)
GI50 [28]: 16.4 µM (inactive)
GI50 [29]: 10.2 µM (inactive)
GI50 [30]: 18.4 µM (inactive)
GI50 [31]: 11.6 µM (inactive)
GI50 [32]: 12.4 µM (inactive)
GI50 [33]: 7.6 µM (inactive)
GI50 [34]: 16.1 µM (inactive)
GI50 [58]: 15.3 µM (inactive)
GI50 [35]: 17.3 µM (inactive)
GI50 [59]: 13.2 µM (inactive)
GI50 [36]: 16.9 µM (inactive)
GI50 [37]: 11.5 µM (inactive)
GI50 [38]: 11.7 µM (inactive)
GI50 [39]: 5 µM (inactive)
GI50 [40]: 11.9 µM (inactive)
GI50 [41]: 22.3 µM (inactive)
GI50 [42]: 4.36 µM (inactive)
GI50 [43]: 11.3 µM (inactive)
GI50 [44]: 15 µM (inactive)
GI50 [45]: 8.07 µM (inactive)
GI50 [46]: 32.4 µM (inactive)
GI50 [47]: 14.7 µM (inactive)
GI50 [48]: 40.6 µM (inactive)
GI50 [50]: 4.57 µM (inactive)

Cc1nc2ccc(NC(=S)Nc3ccccc3)cc2c(=O)n1-c1ccccc1
GI50 [51]: > 100 µM (inactive)
GI50 [1]: > 100 µM (inactive)
GI50 [53]: > 100 µM (inactive)
GI50 [2]: > 100 µM (inactive)
GI50 [3]: > 100 µM (inactive)
GI50 [5]: 80.4 µM (inactive)
GI50 [6]: > 100 µM (inactive)
GI50 [54]: > 100 µM (inactive)
GI50 [55]: 66.4 µM (inactive)
GI50 [7]: > 100 µM (inactive)
GI50 [8]: > 100 µM
GI50 [9]: 31.8 µM (inactive)
GI50 [10]: > 100 µM (inactive)
GI50 [11]: > 100 µM (inactive)
GI50 [12]: > 100 µM (inactive)
GI50 [13]: > 100 µM (inactive)
GI50 [14]: 46.3 µM (inactive)
GI50 [15]: > 100 µM (inactive)
GI50 [16]: > 100 µM (inactive)
GI50 [18]: > 100 µM (inactive)
GI50 [19]: > 100 µM (inactive)
GI50 [20]: > 100 µM (inactive)
GI50 [21]: > 100 µM (inactive)
GI50 [22]: 48.9 µM (inactive)
GI50 [23]: > 100 µM (inactive)
GI50 [24]: > 100 µM (inactive)
GI50 [25]: > 100 µM (inactive)
GI50 [26]: 24.2 µM (inactive)
GI50 [57]: > 100 µM (inactive)
GI50 [27]: > 100 µM (inactive)
GI50 [28]: > 100 µM (inactive)
GI50 [29]: > 100 µM (inactive)
GI50 [30]: > 100 µM (inactive)
GI50 [31]: > 100 µM (inactive)
GI50 [32]: > 100 µM (inactive)
GI50 [33]: 23.6 µM (inactive)
GI50 [34]: > 100 µM (inactive)
GI50 [58]: > 100 µM (inactive)
GI50 [35]: > 100 µM (inactive)
GI50 [36]: 62.2 µM (inactive)
GI50 [37]: 16.6 µM (inactive)
GI50 [38]: 51.3 µM (inactive)
GI50 [40]: > 100 µM (inactive)
GI50 [41]: > 100 µM (inactive)
GI50 [42]: > 100 µM (inactive)
GI50 [43]: > 100 µM (inactive)
GI50 [44]: 76.7 µM (inactive)
GI50 [45]: > 100 µM (inactive)
GI50 [46]: > 100 µM (inactive)
GI50 [47]: 57.7 µM (inactive)
GI50 [48]: > 100 µM (inactive)
GI50 [49]: > 100 µM (inactive)
GI50 [50]: > 100 µM (inactive)
